Measurements as given in paper PMC8512562, “Semisynthetic Derivatives of Selected Amaryllidaceae Alkaloids as a New Class of Antimycobacterial Agents” (Molecules, 2021).
≈ marks a conversion by molar mass, not a printed value. Like-named read-outs stand apart in the source and are kept apart here.

How the values were obtained:
[1] = test system: Mycobacterium aurum DSM 43999 (ATCC 23366); experiment: Antimycobacterial screening (microdilution broth, resazurin) against M. aurum; format: cell-based; conditions: for MIC: Mycolicibacterium aurum, 72 h, read-out: MIC M. aurum
[2] = test system: Mycobacterium tuberculosis H37Ra; experiment: Antimycobacterial screening (microdilution broth, resazurin) against M. tuberculosis H37Ra; format: cell-based; conditions: for MIC: Mycobacterium tuberculosis
[3] = test system: Mycobacterium smegmatis DSM 43465 (ATCC 607); experiment: Antimycobacterial screening (microdilution broth, resazurin) against M. smegmatis; format: cell-based; conditions: for MIC: Mycolicibacterium smegmatis, read-out: MIC M. smegmatis
[4] = test system: HepG2 cells; experiment: cells; format: cell-based, Human; conditions: for IC50: Homo sapiens, HepG2, MTT, 24 h incubation
[5] = test system: M. tuberculosis H37Ra, M. aurum and M. smegmatis; experiment: Antimycobacterial screening, MICs stated over all studied strains; format: cell-based, Mycobacterium; conditions: range over M. tuberculosis H37Ra, M. aurum, M. smegmatis; read-out: MICs against all studied strains
[6] = H37RA, read-out: MIC Mtb H37Ra (µM)
[7] = M. tuberculosis H37Ra, resazurin added after 120 h, read-out: MIC Mtb H37Ra
[8] = range of MIC of the standards in the assay

SMILES	MIC [1]	MIC [2, 6]	MIC [2, 7]	MIC ([3]; 48 h)	SI (selectivity index) [4]	IC50 [4]	MIC [5]	MIC values for standards, range, M. aurum [1, 8]	MIC ([2]; H37RA, 120 h, read-out: MIC Mtb H37Ra)	MIC values for standards, range, M. tuberculosis [2, 8]	MIC ([3]; resazurin added after 48 h)	MIC values for standards, range, M. smegmatis [3, 8]
COC1CC2C(=CC1OC(=O)c1ccc3ccccc3c1)C1CN2Cc2cc3c(cc21)OCO3 (stereo not shown) [3g, 2-O-(2-naphthoyl)-3-O-methylpancracine]	15.6 µg/mL (≈ 34.3 µM)	31.8 µM	15.6 µg/mL	15.6 µg/mL (≈ 34.3 µM)								
COc1cc2c(cc1OC)[C@@H](O)O[C@@H]1CC=C3CCN(C)[C@H]3[C@H]21 [lycorenine (9), lycorenine]	≥ 125 µg/mL	≥ 394 µM	≥ 125 µg/mL	≥ 125 µg/mL								
COc1ccc2c3c1O[C@H]1C[C@@H](OC(=O)c4ccco4)C=C[C@@]31CCN(C)C2 [1s, 6-O-(2-furoyl)galanthamine]	250 µg/mL (≈ 655 µM)	150 µM	62.5 µg/mL	≥ 500 µg/mL								
COc1cc(C(=O)O[C@H]2C=C[C@@]34CCN(C)Cc5ccc(OC)c(c53)O[C@H]4C2)cc(OC)c1OC [1o, 6-O-(3,4,5-trimethoxybenzoyl)galanthamine]	125 µg/mL (≈ 260 µM)	121 µM	62.5 µg/mL	250 µg/mL (≈ 519 µM)								
COc1ccc2c3c1O[C@H]1C[C@@H](OC(=O)c4ccc5ccccc5c4)C=C[C@@]31CCN(C)C2 [1r, 6-O-(2-naphthoyl)galanthamine]	3.91 µg/mL (≈ 8.86 µM)	4.1 µM	1.98 µg/mL	7.81 µg/mL (≈ 17.7 µM)	5.17	21.2 ± 3.8 µM	1.98 to 7.81 µg/mL (≈ 4.48 to 17.7 µM)					
COc1ccc(C(=O)O[C@H]2C=C[C@@]34CCN(C)Cc5ccc(OC)c(c53)O[C@H]4C2)cc1OC [1m, 6-O-(3,4-dimethoxybenzoyl)galanthamine]	125 µg/mL (≈ 277 µM)	128 µM	62.5 µg/mL	250 µg/mL (≈ 554 µM)								
CO[C@H]1C=C2[C@H]3C[N@@](Cc4cc5c(cc43)OCO5)[C@H]2C[C@@H]1O [montanine (8), montanine]	≥ 500 µg/mL	≥ 1660 µM	≥ 500 µg/mL	≥ 500 µg/mL								
COC1CC2C(=CC1OC(=O)c1cc(C)cc(C)c1)C1CN2Cc2cc3c(cc21)OCO3 (stereo not shown) [3a, 2-O-(3,5-dimethylbenzoyl)-3-O-methylpancracine]	7.81 µg/mL (≈ 18 µM)	16.6 µM	7.81 µg/mL	15.6 µg/mL (≈ 36 µM)	2.45	40.6 ± 7.6 µM						
COc1cc2c(cc1OC)[C@@H]1[C@H](O)[C@@H](OC)C=C3CCN(C2)[C@H]31 [galanthine (6), galanthine]	250 µg/mL (≈ 788 µM)	788 µM	250 µg/mL	≥ 500 µg/mL								
NNC(=O)c1ccncc1 [isoniazid, reference compound]	3.91 µg/mL (≈ 28.5 µM)	1.82 µM						1.95 to 3.91 µg/mL	0.25 µg/mL	0.125 to 0.25 µg/mL	31.2 µg/mL (≈ 228 µM)	7.81 to 15.625 µg/mL
CCCCc1ccc(C(=O)O[C@H]2C=C[C@@]34CCN(C)Cc5ccc(OC)c(c53)O[C@H]4C2)cc1 [1i, 6-O-(4-butylbenzoyl)galanthamine]	1.98 µg/mL (≈ 4.42 µM)	3.5 µM	1.56 µg/mL	7.81 µg/mL (≈ 17.4 µM)	4.20	14.7 ± 1.6 µM	1.56 to 7.81 µg/mL (≈ 3.49 to 17.4 µM)					
COc1ccc2c3c1O[C@H]1C[C@@H](OC(=O)c4c(C)cc(C)cc4C)C=C[C@@]31CCN(C)C2 [1g, 6-O-(2,4,6-trimethylbenzoyl)galanthamine]	15.6 µg/mL (≈ 36 µM)	18 µM	7.81 µg/mL	31.2 µg/mL (≈ 72.1 µM)	0.77	13.9 ± 0.8 µM						
CCCCc1ccc(C(=O)OC2C=C3C4CN(Cc5cc6c(cc54)OCO6)C3CC2OC)cc1 (stereo not shown) [3d, 2-O-(4-butylbenzoyl)-3-O-methylpancracine]	7.81 µg/mL (≈ 16.9 µM)	7.9 µM	3.91 µg/mL	7.81 µg/mL (≈ 16.9 µM)	2.59	20.5 ± 0.7 µM						
COC1CC2C(=CC1O)C1CN2Cc2cc3c(cc21)OCO3 (stereo not shown) [3-O-methylpancracine (3), 3-O-methylpancracine]	≥ 500 µg/mL	≥ 1660 µM	≥ 500 µg/mL	≥ 500 µg/mL								
COc1ccc2c3c1O[C@H]1C[C@@H](OC(=O)c4cccc(C)c4C)C=C[C@@]31CCN(C)C2 [1e, 6-O-(2,3-dimethylbenzoyl)galanthamine]	15.6 µg/mL (≈ 37.2 µM)	17.1 µM	7.81 µg/mL	31.2 µg/mL (≈ 74.5 µM)	1.05	17.9 ± 2.6 µM						
COc1cccc(C(=O)O[C@H]2C=C[C@@]34CCN(C)Cc5ccc(OC)c(c53)O[C@H]4C2)c1 [1k, 6-O-(3-methoxybenzoyl)galanthamine]	31.2 µg/mL (≈ 74.1 µM)	68.3 µM	31.2 µg/mL	62.5 µg/mL (≈ 148 µM)								
COc1ccc2c3c1O[C@H]1C[C@@H](OC(=O)c4ccccc4C)C=C[C@@]31CCN(C)C2 [1b, 6-O-(2-methylbenzoyl)galanthamine]	31.2 µg/mL (≈ 77.1 µM)	35.4 µM	15.6 µg/mL	31.2 µg/mL (≈ 77.1 µM)								
